Patent US10167262B2, “Herbicidal substituted 3-arylpyrazoles” (FMC CORPORATION, priority 2014, dated 2019)

Tests used:
Format in all cases: in vivo
[1] = system: waterhemp_RES1, (ALS & Triazine resistant common waterhemp, Amaranthus rudis); test: Test E postemergence greenhouse test, plant response rating 0-100; conditions: scale 0 to 100
Procedure, shortened: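 Resistant waterhemp biotypes grown in peat/vermiculite medium and treated postemergence at 2–18 cm height (1- to 4-leaf stage). Kept in greenhouse 14 to 21 days, then visually rated against untreated controls on a 0–100 scale (0 no effect, 100 complete control).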

[2] = system: waterhemp (common waterhemp, Amaranthus rudis); test: Test E pre-/postemergence greenhouse test, plant response rating 0-100; conditions: Postemergence, scale 0 to 100
Procedure, shortened: (§1)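 Greenhouse pot assay, two application timings. Pre- to silt loam at planting; post- to 1–4-leaf plants. Visual 0–100 score at 14–21 d.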

soybean (Glycine max) = test: as above; conditions: Postemergence, scale 0 to 100
Procedure, shortened: as §1

[3] = system: field bindweed (Convolvulus arvensis); test: as above; conditions: Postemergence, scale 0 to 100
Procedure, shortened: as §1

Structure (SMILES): Cn1cc(C(=O)c2cccs2)c(-c2cc(Cl)cc(Cl)c2)n1 [Compound 17]
- Plant response rating, Waterhemp_RES1 ([1]; 31 g ai/ha): 70
- Plant response rating, Waterhemp_RES1 ([1]; 62 g ai/ha): 70
- Plant response rating, Waterhemp_RES1 ([1]; 250 g ai/ha): 85
- Plant response rating, Waterhemp_RES1 ([1]; 500 g ai/ha): 85
- Plant response rating, Waterhemp ([2]; 31 g ai/ha): 50
- Plant response rating, Waterhemp ([2]; 62 g ai/ha): 80
- Plant response rating, Waterhemp ([2]; 125 g ai/ha): 85
- Plant response rating, Waterhemp ([2]; 250 g ai/ha): 90
- Plant response rating, Waterhemp ([2]; 500 g ai/ha): 95
- Plant response rating, Soybean (soybean (Glycine max); 31 g ai/ha): 0
- Plant response rating, Soybean (soybean (Glycine max); 62 g ai/ha): 0
- Plant response rating, Soybean (soybean (Glycine max); 125 g ai/ha): 0
- Plant response rating, Soybean (soybean (Glycine max); 250 g ai/ha): 15
- Plant response rating, Soybean (soybean (Glycine max); 500 g ai/ha): 20
- Plant response rating, Field Bindweed ([3]; 31 g ai/ha): 0
- Plant response rating, Field Bindweed ([3]; 62 g ai/ha): 10
- Plant response rating, Field Bindweed ([3]; 125 g ai/ha): 20
- Plant response rating, Field Bindweed ([3]; 250 g ai/ha): 30
- Plant response rating, Field Bindweed ([3]; 500 g ai/ha): 30
